Usually IC50 stands for the midpoint of a concentration-inhibition curve.

Like-named read-outs stand apart in the source and are kept apart here. Where only a bound is given, the exact number is not on record here.

Common to all, as to assay type: cell-based
For one assay, the system named is CCRF-CEM. The assay is described as follows: CellTiterGlo viability assay, initial screening. Conditions: Homo sapiens, read-out: IC50 (relative IC50). The procedure: (§1) In vitro viability assays were performed to assess the effects of compounds on cell viability in 7 selected cell lines over 72 hr using the CellTiterGlo (CTG, Promega-G7573) assay. The tests were performed in duplicates with treatment of compounds at 9 points, 3.16 folds titration in 96 well plates over ˜72 hr. The compound starting concentrations were […]. Cell viability assay using CellTiterGlo in 96-well plate were performed. The compound treatment was 72 hrs, under standard growth conditions, and in duplicate. Compounds were dissolved to 40 mM with thawed […]. Compounds were serially diluted at 3.16 fold in thawed DMSO, and warmed to 37° C. before being dissolved in media (2 μl+200 μl). After compounds were dissolved in media (media was also warmed to 37° C.). Media containing compounds were warmed to 37° C. in incubator and then compounds in media were added to cell plates (50 μl+50 μl), in duplicates. The compounds final concentrations were from […] to 19.9 nM. All compound solubilities were checked and recorded again, then the plates were transferred to CO2 tissue culture incubator immediately and incubated for 3 days. DMSO final concentration is 0.5%.
(In general: Cellular ATP, detected with luciferase, serves as a proxy for viable cell number.)

Another assay deals with HL-60. Briefly: CellTiterGlo viability assay, initial screening. Conditions: Homo sapiens, read-out: IC50 (relative IC50). The procedure:
as §1

The subject of the next assay is HepG2. Briefly: CellTiterGlo viability assay, initial screening. Conditions: Homo sapiens, read-out: IC50 (relative IC50). The procedure: as §1
The test system of assay [1] is K562. Briefly: CellTiterGlo viability assay, initial screening. Conditions: Homo sapiens, read-out: IC50 (relative IC50). The procedure: as §1
For assay [2], the system named is KG-1. The assay is described as follows: CellTiterGlo viability assay, initial screening. Conditions: Homo sapiens, read-out: IC50 (relative IC50). The method, then: as §1
A further assay concerns MCF-7. The assay is described as follows: CellTiterGlo viability assay, initial screening. Conditions: Homo sapiens, read-out: IC50 (relative IC50). The method, then: as §1
Assay [3] concerns MOLT-4. The assay is described as follows: CellTiterGlo viability assay, initial screening. Conditions: Homo sapiens, read-out: IC50 (relative IC50). The procedure: as §1
In the next assay the test system is CCRFCEM. Briefly: Solid tumour and haematological malignancy assay (CellTiterGlo). Conditions: Homo sapiens, CCRF-CEM; for IC50: read-out: IC50 (absolute IC50); for Emax: read-out: MI %. The method, then:
(§2) In vitro viability assay were performed to assess the effects of compounds on cell viability in selected cell lines over 72 hr using the CellTiterGlo (CTG, Promega-G7573) assay. […] Cell viability assay using CellTiterGlo in 96-well plate were performed. Compound treatment 72 hrs, standard growth conditions, duplicates. Compounds were dissolved to 40 mM with thawed 100%. […] After compounds were dissolved in media, media containing compounds were warmed to 37° C. in incubator and then compounds in media were added to cell plates ([…]) in duplicates. […] All compound solubilities were checked and recorded again, then the plates were transferred to CO2 tissue culture incubator immediately and incubated for 3 days. DMSO final concentration is 0.5%.

Another assay has as its system HT29. Described as above. Conditions: Homo sapiens; for IC50: read-out: IC50 (absolute IC50); for Emax: read-out: MI %. The procedure: as §2
Assay [4] concerns K562. Described as above. Conditions: Homo sapiens; for IC50: read-out: IC50 (absolute IC50); for Emax: read-out: MI %. The procedure:
as §2

Assay [5] deals with KG-1. The assay is described as above. Conditions: Homo sapiens; for IC50: read-out: IC50 (absolute IC50); for Emax: read-out: MI %. The procedure: as §2
The test system of the next assay is MCF7. Described as above. Conditions: Homo sapiens; for IC50: read-out: IC50 (absolute IC50); for Emax: read-out: MI %. The method, then: as §2
Assay [6] concerns MOLT-4. Described as above. Conditions: Homo sapiens; for IC50: read-out: IC50 (absolute IC50); for Emax: read-out: MI %. The procedure: (§3) In vitro viability assay were performed to assess the effects of compounds on cell viability in selected cell lines over 72 hr using the CellTiterGlo (CTG, Promega-G7573) assay. The tests were performed in duplicates with treatment of compounds at 9 points, 3.16 folds titration in 96 well plates over ˜72 hr. The compound starting concentrations were […]. Cell viability assay using CellTiterGlo in 96-well plate were performed. Compound treatment 72 hrs, standard growth conditions, duplicates. Compounds were dissolved to 40 mM with thawed […]. Compounds were serially diluted at 3.16 fold in thawed DMSO, and warmed to 37° C. before being dissolved in media ([…]). After compounds were dissolved in media, media containing compounds were warmed to 37° C. in incubator and then compounds in media were added to cell plates ([…]) in duplicates. The compounds' final concentrations were from […] to 19.9 nM. All compound solubilities were checked and recorded again, then the plates were transferred to CO2 tissue culture incubator immediately and incubated for 3 days. DMSO final concentration is 0.5%.

A further assay concerns NCI-H929. The description is as above. Conditions: Homo sapiens; for IC50: read-out: IC50 (absolute IC50); for Emax: read-out: MI %. The procedure:
as §3

For a further assay, the system named is RL. Described as above. Conditions: Homo sapiens; for IC50: read-out: IC50 (absolute IC50); for Emax: read-out: MI %. The method, then:
as §3

In the case of `C[C@H](NP(=O)(N[C@@H](C)C(=O)OCc1ccccc1)OC[C@@H]1CC(O)[C@H](n2cnc3c(N)ncnc32)O1)C(=O)OCc1ccccc1` (stereo in doubt) [Compound J, Benzyl 2-[({[5-(6-amino-9H-purin-9-yl)-4-hydroxyoxolan-2-yl]methoxy}({[1-(benzyloxy)-1-oxopropan-2-yl]amino})phosphoryl)amino]propanoate], the IC50 in the assay with CCRF-CEM (72 hr) was in the range of 15 to 100 µM; in the assay on HL-60 (HL-60, 72 hr) it was 15 to 100 µM; in the assay with HepG2 (HepG2, 72 hr), 15 to 100 µM; in the assay with K562 [1] (K562, 72 hr), 15 to 100 µM; in the assay on KG-1 [2] (KG-1, 72 hr), 15 to 100 µM; with MCF-7 (MCF7, MCF-7, 72 hr), 15 to 100 µM. Also, the IC50 in the assay on MOLT-4 [3] (MOLT-4, 72 hr) lay within 0.1 to 5 µM.

As for `COc1nc(N)c2ncn([C@@H]3O[C@H](CO)C[C@H]3O)c2n1` [2-OMe-Cordycepin, 3′-deoxy-2-methoxyadenosine, reference compound], the IC50 with CCRFCEM (CCRFCEM, 72 hr) is more than 100 µM; in the assay on HT29 (HT-29, HT29, 72 hr), more than 100 µM; in the assay on K562 [4] (K562, 72 hr), more than 100 µM; in the assay with KG-1 [5] (KG-1, 72 hr) it was more than 100 µM; with MCF7 (MCF7, 72 hr), more than 100 µM; in the assay with MOLT-4 [6] (MOLT-4, 72 hr), more than 100 µM. The IC50 in the assay on NCI-H929 (NCI-H929, 72 hr) was more than 100 µM; in the assay on RL (72 hr), more than 100 µM. Besides, the Emax with CCRFCEM (CCRFCEM, 72 hr) is -4%; in the assay on HT29 (HT-29, HT29, 72 hr), 19%; in the assay on K562 [4] (K562, 72 hr) it was 40%; with KG-1 [5] (KG-1, 72 hr), 1%; in the assay on MCF7 (MCF7, 72 hr), 8%; in the assay on MOLT-4 [6] (MOLT-4, 72 hr), 1%. For the same molecule, the Emax is 51% in the assay on NCI-H929 (NCI-H929, 72 hr) and 0% in the assay on RL (72 hr).

With `C[C@H](NP(=O)(Oc1cccc2ccccc12)O[C@@H]1C[C@@H](CO)O[C@H]1n1cnc2c(N)ncnc21)C(=O)OCc1ccccc1` (stereo partly drawn) [Compound I, (2S)-benzyl 2-(((((2R,3R,5S)-2-(6-amino-9H-purin-9-yl)-5-(hydroxymethyl)tetrahydro-furan-3-yl)oxy)(naphthalen-1-yloxy)phosphoryl)amino)propanoate], the IC50 with CCRF-CEM (72 h) is 15 to 100 µM; with HL-60 (HL-60, 72 h) it was 15 to 100 µM; in the assay on HepG2 (HepG2, 72 h), 15 to 100 µM; in the assay with K562 [1] (K562, 72 h), 15 to 100 µM; in the assay on KG-1 [2] (KG-1, 72 h), 15 to 100 µM; in the assay on MCF-7 (MCF7, 72 h), 5 to 15 µM. For the same molecule, the IC50 in the assay on MOLT-4 [3] (MOLT-4, 72 h) was in the range of 15 to 100 µM.

On to `CCCCCOC(=O)[C@H](CC(C)C)NP(=O)(OC[C@@H]1C[C@H](O)[C@H](n2cnc3c(N)nc(OC)nc32)O1)Oc1cccc2ccccc12` (some centres unmarked) [Compound M], for which the IC50 fell in the range of 5 to 15 µM with CCRFCEM (72 h); 15 to 100 µM in the assay on HT29 (HT-29, 72 h); 5 to 15 µM in the assay with K562 [4] (K562, 72 h); 15 to 100 µM in the assay with KG-1 [5] (KG-1, 72 h); 15 to 100 µM with MCF7 (MCF7, 72 h); 5 to 15 µM in the assay with MOLT-4 [6] (MOLT-4, 72 h). In addition, the IC50 in the assay with NCI-H929 (NCI-H929, 72 h) was 5 to 15 µM; in the assay with RL (72 h) it was 5 to 15 µM. The Emax was determined as 100% in the assay with CCRFCEM (72 h); 100% in the assay on HT29 (HT-29, 72 h); 100% in the assay on K562 [4] (K562, 72 h); 102% with KG-1 [5] (KG-1, 72 h); 100% in the assay on MCF7 (MCF7, 72 h); 101% with MOLT-4 [6] (MOLT-4, 72 h). Also, the Emax in the assay with NCI-H929 (NCI-H929, 72 h) is 99%; in the assay on RL (72 h) it was 100%.

In the case of `CCCCCCOC(=O)[C@H](C)NP(=O)(OC[C@@H]1C[C@H](O)[C@H](n2cnc3c(N)nc(OC)nc32)O1)Oc1ccccc1` (stereo partly drawn) [Compound N, 2-O-methyl-3′-deoxyadenosine-5′-O-[phenyl(1-hexyloxy-L-alaninyl)] phosphate], the IC50 was in the range of 15 to 100 µM in the assay on CCRFCEM (72 h); 15 to 100 µM in the assay with HT29 (HT-29, 72 h); 15 to 100 µM with K562 [4] (K562, 72 h); 15 to 100 µM with KG-1 [5] (KG-1, 72 h); 15 to 100 µM in the assay with MCF7 (MCF7, 72 h); 15 to 100 µM in the assay on MOLT-4 [6] (MOLT-4, 72 h). Further, the IC50 fell in the range of 15 to 100 µM in the assay with NCI-H929 (NCI-H929, 72 h) and 15 to 100 µM in the assay with RL (72 h). In addition, the Emax with CCRFCEM (72 h) was determined as 93%; in the assay on HT29 (HT-29, 72 h) it was 69%; in the assay on K562 [4] (K562, 72 h), 78%; in the assay on KG-1 [5] (KG-1, 72 h), 96%; in the assay on MCF7 (MCF7, 72 h), 73%; in the assay with MOLT-4 [6] (MOLT-4, 72 h) it was 97%. The Emax with NCI-H929 (NCI-H929, 72 h) worked out at 99%; in the assay on RL (72 h), 88%.

Consider `C[C@H](NP(=O)(Oc1ccccc1)O[C@@H]1C[C@@H](CO)O[C@H]1n1cnc2c(N)ncnc21)C(=O)OCc1ccccc1` (stereo partly drawn) [G, (2S)-benzyl 2-(((((2R,3R,5S)-2-(6-amino-9H-purin-9-yl)-5-(hydroxymethyl)tetrahydro-furan-3-yl)oxy)(phenoxy)phosphoryl)amino)propanoate], for which the IC50 in the assay with CCRF-CEM (72 h) is 15 to 100 µM; in the assay with HL-60 (HL-60, 72 h), 15 to 100 µM; in the assay with HepG2 (HepG2, 72 h) it was 15 to 100 µM; with K562 [1] (K562, 72 h), 15 to 100 µM; in the assay on KG-1 [2] (KG-1, 72 h), 15 to 100 µM; with MCF-7 (MCF7, 72 h), 5 to 15 µM. For the same molecule, the IC50 in the assay on MOLT-4 [3] (MOLT-4, 72 h) lay within 15 to 100 µM.

In the case of `COc1nc(N)c2ncn([C@@H]3O[C@H](COP(=O)(N[C@@H](C)C(=O)OCc4ccccc4)Oc4cccc5ccccc45)C[C@H]3O)c2n1` (some centres unmarked) [K], the IC50 with CCRFCEM (72 h) lay within 5 to 15 µM; in the assay on HT29 (HT-29, 72 h), 15 to 100 µM; with K562 [4] (K562, 72 h), 15 to 100 µM; in the assay on KG-1 [5] (KG-1, 72 h) it was 15 to 100 µM; in the assay on MCF7 (MCF7, 72 h), 5 to 15 µM; with MOLT-4 [6] (MOLT-4, 72 h), 15 to 100 µM. Besides, the IC50 fell in the range of 5 to 15 µM in the assay with NCI-H929 (NCI-H929, 72 h) and 15 to 100 µM in the assay with RL (72 h).
